Test results as given in ChEMBL document CHEMBL4507292 (2021).

Tests used:
[1] = target: Myosin-IIIb (Homo sapiens) (UniProt Q8WXR4); conditions: Compound concentration 1000.0 nM
[2] = target: Calcium/calmodulin-dependent protein kinase type 1 (Homo sapiens) (UniProt Q14012); conditions: Compound concentration 1000.0 nM
[3] = test system: Epidermal growth factor receptor (Homo sapiens), P00533 [G719C]; conditions: Compound concentration 1000.0 nM
[4] = target: Myosin light chain kinase 2, skeletal/cardiac muscle (Homo sapiens) (UniProt Q9H1R3); conditions: Compound concentration 1000.0 nM
Myosin light chain kinase 2, skeletal/cardiac muscle (Homo sapiens), sequence (Q9H1R3 whole entry): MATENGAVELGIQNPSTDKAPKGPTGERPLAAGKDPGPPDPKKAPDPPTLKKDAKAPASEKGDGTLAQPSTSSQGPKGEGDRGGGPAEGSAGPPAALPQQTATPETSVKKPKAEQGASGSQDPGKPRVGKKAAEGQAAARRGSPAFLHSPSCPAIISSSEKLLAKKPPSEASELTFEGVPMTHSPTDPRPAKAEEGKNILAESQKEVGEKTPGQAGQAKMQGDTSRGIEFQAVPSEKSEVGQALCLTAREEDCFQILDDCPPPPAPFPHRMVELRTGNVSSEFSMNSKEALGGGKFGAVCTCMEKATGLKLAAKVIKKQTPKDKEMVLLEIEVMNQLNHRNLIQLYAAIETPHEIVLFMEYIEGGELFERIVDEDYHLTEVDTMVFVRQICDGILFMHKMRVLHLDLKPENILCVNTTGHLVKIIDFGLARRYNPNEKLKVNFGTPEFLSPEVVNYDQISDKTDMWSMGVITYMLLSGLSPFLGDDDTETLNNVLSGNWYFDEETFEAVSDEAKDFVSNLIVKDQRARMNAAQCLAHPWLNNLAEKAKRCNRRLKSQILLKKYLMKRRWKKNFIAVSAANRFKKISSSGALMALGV

[5] = target: Protein kinase C eta type (Homo sapiens) (UniProt P24723); conditions: Compound concentration 1000.0 nM
[6] = target: NUAK family SNF1-like kinase 1 (Homo sapiens) (UniProt O60285); conditions: Compound concentration 1000.0 nM
[7] = target: Macrophage-stimulating protein receptor (Homo sapiens) (UniProt Q04912); conditions: Compound concentration 1000.0 nM
[8] = target: Protein kinase C delta type (Homo sapiens) (UniProt Q05655); conditions: Compound concentration 1000.0 nM
Protein kinase C delta type (Homo sapiens), sequence (Q05655 whole entry, looked up): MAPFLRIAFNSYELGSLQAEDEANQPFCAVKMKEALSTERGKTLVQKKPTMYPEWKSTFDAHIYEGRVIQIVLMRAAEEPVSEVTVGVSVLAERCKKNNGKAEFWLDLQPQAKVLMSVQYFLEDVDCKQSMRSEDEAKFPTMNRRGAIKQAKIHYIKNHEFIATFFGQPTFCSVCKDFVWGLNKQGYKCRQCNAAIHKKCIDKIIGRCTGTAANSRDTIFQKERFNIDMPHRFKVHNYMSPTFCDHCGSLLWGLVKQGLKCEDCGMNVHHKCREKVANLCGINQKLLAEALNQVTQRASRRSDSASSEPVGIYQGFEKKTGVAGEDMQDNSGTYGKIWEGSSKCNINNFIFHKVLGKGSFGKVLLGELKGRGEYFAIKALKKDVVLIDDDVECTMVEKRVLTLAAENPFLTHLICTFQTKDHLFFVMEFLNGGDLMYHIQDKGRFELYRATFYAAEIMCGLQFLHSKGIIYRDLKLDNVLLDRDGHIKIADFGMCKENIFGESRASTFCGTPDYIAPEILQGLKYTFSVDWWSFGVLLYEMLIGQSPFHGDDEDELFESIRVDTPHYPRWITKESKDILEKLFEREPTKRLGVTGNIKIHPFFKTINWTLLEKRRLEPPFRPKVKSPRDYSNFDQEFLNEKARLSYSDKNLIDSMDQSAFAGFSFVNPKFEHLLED

[9] = target: Serine/threonine-protein kinase Nek4 (Homo sapiens) (UniProt P51957); conditions: Compound concentration 1000.0 nM
[10] = target: Tyrosine-protein kinase SYK (Homo sapiens) (UniProt P43405); conditions: Compound concentration 1000.0 nM
[11] = target: T1, 5-hydroxytryptamine receptor 2C (Homo sapiens) (UniProt P28335); conditions: Compound concentration 10.0 uM
T1 sequence (whole entry): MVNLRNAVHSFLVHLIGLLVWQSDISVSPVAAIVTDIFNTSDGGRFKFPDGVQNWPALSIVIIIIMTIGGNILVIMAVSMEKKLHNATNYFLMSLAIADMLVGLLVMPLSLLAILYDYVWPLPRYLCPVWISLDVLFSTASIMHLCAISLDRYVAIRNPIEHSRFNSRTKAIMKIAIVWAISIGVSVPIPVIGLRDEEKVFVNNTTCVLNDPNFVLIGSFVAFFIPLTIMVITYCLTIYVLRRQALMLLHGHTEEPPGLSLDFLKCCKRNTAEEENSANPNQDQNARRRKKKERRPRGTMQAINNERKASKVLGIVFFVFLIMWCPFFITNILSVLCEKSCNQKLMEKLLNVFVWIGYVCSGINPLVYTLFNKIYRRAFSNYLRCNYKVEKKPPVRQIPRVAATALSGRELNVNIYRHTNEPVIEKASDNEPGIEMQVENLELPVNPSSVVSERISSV

[12] = target: 5-hydroxytryptamine receptor 1D (Homo sapiens) (UniProt P28221); conditions: Compound concentration 10.0 uM
[13] = target: 5-hydroxytryptamine receptor 2A (Homo sapiens) (UniProt P28223); conditions: Compound concentration 10.0 uM
[14] = target: Platelet-derived growth factor receptor alpha (Homo sapiens) (UniProt P16234); conditions: Compound concentration 1000.0 nM
[15] = target: T2, Beta-3 adrenergic receptor (Homo sapiens, UniProt P13945); conditions: Compound concentration 10.0 uM
[16] = target: T2, Beta-3 adrenergic receptor; assay: GPCRScan assay: inhibition of Beta3; parameters: radioligand conc. used [nm] 0.2 – 0.5, parental cells HEK Flp-In
[17] = target: Phosphatidylinositol 5-phosphate 4-kinase type-2 beta (Homo sapiens) (UniProt P78356); conditions: Compound concentration 1000.0 nM
[18] = target: Membrane-associated tyrosine- and threonine-specific cdc2-inhibitory kinase (Homo sapiens) (UniProt Q99640); conditions: Compound concentration 1000.0 nM
[19] = target: Receptor tyrosine-protein kinase erbB-2 (Homo sapiens) (UniProt P04626); conditions: Compound concentration 1000.0 nM
[20] = target: Calcium/calmodulin-dependent protein kinase type 1G (Homo sapiens) (UniProt Q96NX5); conditions: Compound concentration 1000.0 nM
[21] = target: Cyclin-dependent kinase 5 (Homo sapiens) (UniProt Q00535); conditions: Compound concentration 1000.0 nM
[22] = target: G protein-coupled receptor kinase 3 (Homo sapiens) (UniProt P35626); conditions: Compound concentration 1000.0 nM
[23] = test system: Mast/stem cell growth factor receptor Kit (Homo sapiens), P10721 [A829P]; conditions: Compound concentration 1000.0 nM
[24] = test system: Proto-oncogene tyrosine-protein kinase receptor Ret (Homo sapiens), P07949 [V804L]; conditions: Compound concentration 1000.0 nM
[25] = target: Tyrosine-protein kinase TXK (Homo sapiens) (UniProt P42681); conditions: Compound concentration 1000.0 nM
Tyrosine-protein kinase TXK (Homo sapiens), sequence (P42681 whole entry): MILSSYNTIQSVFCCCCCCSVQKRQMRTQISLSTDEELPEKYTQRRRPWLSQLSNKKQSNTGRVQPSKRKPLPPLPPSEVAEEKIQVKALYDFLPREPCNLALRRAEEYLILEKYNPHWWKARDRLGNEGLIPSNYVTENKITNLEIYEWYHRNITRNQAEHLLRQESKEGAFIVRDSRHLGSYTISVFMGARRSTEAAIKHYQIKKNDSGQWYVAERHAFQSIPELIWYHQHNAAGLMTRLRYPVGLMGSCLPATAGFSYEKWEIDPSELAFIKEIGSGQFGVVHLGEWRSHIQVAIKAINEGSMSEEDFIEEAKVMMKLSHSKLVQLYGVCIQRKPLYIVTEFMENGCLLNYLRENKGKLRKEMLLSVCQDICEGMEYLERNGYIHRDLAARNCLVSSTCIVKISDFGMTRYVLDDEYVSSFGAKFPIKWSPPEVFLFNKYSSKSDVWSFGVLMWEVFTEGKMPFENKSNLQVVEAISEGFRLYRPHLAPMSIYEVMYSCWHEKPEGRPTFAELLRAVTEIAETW

[26] = target: Cyclin-dependent kinase 4 (Homo sapiens) (UniProt P11802); conditions: Compound concentration 1000.0 nM
[27] = target: Serine/threonine-protein kinase 10 (Homo sapiens) (UniProt O94804); conditions: Compound concentration 1000.0 nM
[28] = target: Serine/threonine-protein kinase Nek11 (Homo sapiens) (UniProt Q8NG66); conditions: Compound concentration 1000.0 nM
[29] = target: Ephrin type-B receptor 4 (Homo sapiens) (UniProt P54760); conditions: Compound concentration 1000.0 nM
[30] = target: Tyrosine-protein kinase receptor Tie-1 (Homo sapiens) (UniProt P35590); conditions: Compound concentration 1000.0 nM
[31] = target: Angiopoietin-1 receptor (Homo sapiens) (UniProt Q02763); conditions: Compound concentration 1000.0 nM
[32] = target: Serine/threonine-protein kinase PRP4 homolog (Homo sapiens) (UniProt Q13523); conditions: Compound concentration 1000.0 nM
Serine/threonine-protein kinase PRP4 homolog (Homo sapiens), sequence (Q13523 whole entry): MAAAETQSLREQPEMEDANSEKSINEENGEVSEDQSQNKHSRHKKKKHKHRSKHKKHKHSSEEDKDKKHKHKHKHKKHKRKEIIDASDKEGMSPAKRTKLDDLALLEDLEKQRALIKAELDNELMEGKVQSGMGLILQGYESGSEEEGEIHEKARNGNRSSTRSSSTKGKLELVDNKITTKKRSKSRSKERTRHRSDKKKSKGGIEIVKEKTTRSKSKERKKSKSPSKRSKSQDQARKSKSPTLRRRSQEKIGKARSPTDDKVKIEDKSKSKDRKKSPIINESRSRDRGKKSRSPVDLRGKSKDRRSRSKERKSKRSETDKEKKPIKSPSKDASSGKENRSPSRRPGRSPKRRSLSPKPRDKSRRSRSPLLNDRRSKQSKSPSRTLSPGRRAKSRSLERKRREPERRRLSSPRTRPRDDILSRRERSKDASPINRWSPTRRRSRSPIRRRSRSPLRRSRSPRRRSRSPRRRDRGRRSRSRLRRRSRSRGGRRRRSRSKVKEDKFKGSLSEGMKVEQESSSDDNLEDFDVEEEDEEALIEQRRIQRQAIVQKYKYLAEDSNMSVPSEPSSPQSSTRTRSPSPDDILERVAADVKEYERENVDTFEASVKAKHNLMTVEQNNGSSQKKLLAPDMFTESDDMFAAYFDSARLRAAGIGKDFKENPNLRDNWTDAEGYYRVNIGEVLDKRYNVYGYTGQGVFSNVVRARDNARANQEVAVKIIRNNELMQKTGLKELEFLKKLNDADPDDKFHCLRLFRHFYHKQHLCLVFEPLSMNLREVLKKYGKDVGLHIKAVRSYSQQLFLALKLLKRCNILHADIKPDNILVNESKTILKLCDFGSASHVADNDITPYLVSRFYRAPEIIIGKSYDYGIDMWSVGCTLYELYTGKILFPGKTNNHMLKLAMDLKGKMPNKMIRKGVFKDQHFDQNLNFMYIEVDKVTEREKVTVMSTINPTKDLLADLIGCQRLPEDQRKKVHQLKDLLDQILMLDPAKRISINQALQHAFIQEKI

[33] = target: BMP-2-inducible protein kinase (Homo sapiens) (UniProt Q9NSY1); conditions: Compound concentration 1000.0 nM
[34] = target: Kappa-type opioid receptor (Homo sapiens, UniProt P41145); conditions: Compound concentration 10.0 uM
Kappa-type opioid receptor, sequence (P41145 whole entry): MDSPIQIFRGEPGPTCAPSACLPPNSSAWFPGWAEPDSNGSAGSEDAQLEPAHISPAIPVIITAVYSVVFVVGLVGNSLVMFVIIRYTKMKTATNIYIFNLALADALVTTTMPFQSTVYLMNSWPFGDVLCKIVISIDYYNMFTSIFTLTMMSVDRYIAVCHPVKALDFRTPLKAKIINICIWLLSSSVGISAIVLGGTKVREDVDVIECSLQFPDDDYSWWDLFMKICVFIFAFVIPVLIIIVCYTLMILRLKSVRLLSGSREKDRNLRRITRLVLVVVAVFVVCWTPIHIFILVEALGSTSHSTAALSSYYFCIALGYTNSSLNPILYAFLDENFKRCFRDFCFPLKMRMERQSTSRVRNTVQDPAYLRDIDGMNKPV

[35] = target: D(3) dopamine receptor (Homo sapiens) (UniProt P35462); conditions: Compound concentration 10.0 uM
[36] = test system: Epidermal growth factor receptor (Homo sapiens), P00533 [UNDEFINED MUTATION]; conditions: Compound concentration 1000.0 nM
[37] = target: Tyrosine-protein kinase CSK (Homo sapiens) (UniProt P41240); conditions: Compound concentration 1000.0 nM
Tyrosine-protein kinase CSK (Homo sapiens), sequence (P41240 2-450 limits assumed): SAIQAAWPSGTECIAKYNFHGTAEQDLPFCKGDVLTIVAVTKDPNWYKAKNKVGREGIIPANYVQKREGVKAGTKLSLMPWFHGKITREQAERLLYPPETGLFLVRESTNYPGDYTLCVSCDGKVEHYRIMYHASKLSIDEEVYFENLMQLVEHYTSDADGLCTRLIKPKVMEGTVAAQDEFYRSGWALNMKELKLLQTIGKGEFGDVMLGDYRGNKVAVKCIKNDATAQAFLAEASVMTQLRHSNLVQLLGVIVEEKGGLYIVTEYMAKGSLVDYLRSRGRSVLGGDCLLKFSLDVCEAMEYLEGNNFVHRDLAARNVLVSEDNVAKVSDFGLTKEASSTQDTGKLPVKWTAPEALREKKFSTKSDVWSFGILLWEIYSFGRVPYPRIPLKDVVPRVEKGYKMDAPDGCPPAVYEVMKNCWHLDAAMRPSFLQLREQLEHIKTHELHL

[38] = target: Dual specificity mitogen-activated protein kinase kinase 7 (Homo sapiens) (UniProt O14733); conditions: Compound concentration 1000.0 nM
Dual specificity mitogen-activated protein kinase kinase 7 (Homo sapiens), sequence (O14733 whole entry): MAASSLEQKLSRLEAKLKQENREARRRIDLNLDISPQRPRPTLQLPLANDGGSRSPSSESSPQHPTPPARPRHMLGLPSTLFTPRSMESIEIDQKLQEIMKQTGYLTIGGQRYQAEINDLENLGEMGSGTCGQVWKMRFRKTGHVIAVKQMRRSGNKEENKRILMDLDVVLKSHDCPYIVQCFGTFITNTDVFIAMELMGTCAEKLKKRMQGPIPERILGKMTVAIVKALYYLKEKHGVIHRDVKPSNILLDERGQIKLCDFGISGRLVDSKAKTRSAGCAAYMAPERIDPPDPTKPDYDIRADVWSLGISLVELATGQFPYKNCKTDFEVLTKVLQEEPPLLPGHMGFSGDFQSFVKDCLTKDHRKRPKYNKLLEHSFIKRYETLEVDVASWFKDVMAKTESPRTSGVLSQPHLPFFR

[39] = target: Myosin light chain kinase family member 4 (Homo sapiens) (UniProt Q86YV6); conditions: Compound concentration 1000.0 nM
Myosin light chain kinase family member 4 (Homo sapiens), sequence (Q86YV6 whole entry): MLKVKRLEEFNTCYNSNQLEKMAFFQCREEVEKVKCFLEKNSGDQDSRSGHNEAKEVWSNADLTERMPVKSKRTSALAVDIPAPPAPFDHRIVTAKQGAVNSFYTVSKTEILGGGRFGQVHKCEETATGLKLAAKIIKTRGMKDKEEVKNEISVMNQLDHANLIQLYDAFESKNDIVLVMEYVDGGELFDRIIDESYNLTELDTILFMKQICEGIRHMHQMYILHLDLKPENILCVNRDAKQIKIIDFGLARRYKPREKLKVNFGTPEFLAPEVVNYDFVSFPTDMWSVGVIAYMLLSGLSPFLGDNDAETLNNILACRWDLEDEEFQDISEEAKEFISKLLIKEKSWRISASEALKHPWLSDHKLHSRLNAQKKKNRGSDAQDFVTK

Calcium/calmodulin-dependent protein kinase type 1 (Homo sapiens), sequence (Q14012 whole entry, looked up): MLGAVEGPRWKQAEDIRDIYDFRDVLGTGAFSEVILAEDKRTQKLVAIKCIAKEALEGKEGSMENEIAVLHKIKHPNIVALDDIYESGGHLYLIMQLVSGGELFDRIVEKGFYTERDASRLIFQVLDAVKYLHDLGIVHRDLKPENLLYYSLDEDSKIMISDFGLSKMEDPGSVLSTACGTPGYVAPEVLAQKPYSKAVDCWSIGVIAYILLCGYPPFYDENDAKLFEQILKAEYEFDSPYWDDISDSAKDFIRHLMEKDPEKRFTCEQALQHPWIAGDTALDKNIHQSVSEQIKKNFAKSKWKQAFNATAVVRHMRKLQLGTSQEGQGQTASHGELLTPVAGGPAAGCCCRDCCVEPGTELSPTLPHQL

Compound	residual activity [1] [%]	residual activity [2] [%]	residual activity [3] [%]	residual activity [4] [%]	residual activity [5] [%]	residual activity [6] [%]	residual activity [7] [%]	residual activity [8] [%]	residual activity [9] [%]	residual activity [10] [%]	inhibition [11] [%]	inhibition [12] [%]	inhibition [13] [%]	residual activity [14] [%]	inhibition [15] [%]	Ki [16] [µM]	residual activity [17] [%]	residual activity [18] [%]	residual activity [19] [%]	residual activity [20] [%]	further results
Cc1c(C(=O)O)cc(-c2ccc(C3CCNCC3)cc2)c2ccc(-c3ccc(C(F)(F)F)cc3)cc12 [PPTN-NC]	75	100	100	100	100	100	100	100	100	100	-4.53	30.1	23.4	100	57.5	3.26	86	100	100	100	residual activity [21]: 100%; residual activity [22]: 71%; residual activity [23]: 98%; residual activity [24]: 100%; residual activity [25]: 100%; residual activity [26]: 100%; residual activity [27]: 100%; residual activity [28]: 100%; residual activity [29]: 100%; residual activity [30]: 100%; residual activity [31]: 100%; residual activity [32]: 100%; residual activity [33]: 83%; inhibition [34]: 27.9%; inhibition [35]: 46.7%; residual activity [36]: 100%; residual activity [37]: 100%; residual activity [38]: 100%; residual activity [39]: 100%
O=C(O)c1cc(-c2ccc(C3CCNCC3)cc2)c2ccc(-c3ccc(C(F)(F)F)cc3)cc2c1 [PPTN]	69	100	100	100	100	100	100	100	100	100	11.2	33.6	29.1	100	65.2	2.92	91	100	100	100	residual activity [21]: 100%; residual activity [22]: 68%; residual activity [23]: 100%; residual activity [24]: 88%; residual activity [25]: 100%; residual activity [26]: 100%; residual activity [27]: 100%; residual activity [28]: 100%; residual activity [29]: 100%; residual activity [30]: 100%; residual activity [31]: 100%; residual activity [32]: 100%; residual activity [33]: 84%; inhibition [34]: 41.7%; inhibition [35]: 65.6%; residual activity [36]: 100%; residual activity [37]: 100%; residual activity [38]: 100%; residual activity [39]: 94%
